Measurements reported in US9783485B1, “Crystalline inhibitor of 4-hydroxyphenylpyruvate dioxygenase, and a process of synthesis and crystallization thereof” (Dipharma S.A., priority 2016, dated 2017).

Experiment: Stability studies of nitisinone obtained through the process of the invention (storage; appearance, KF water, HPLC assay, impurities by HPLC and HPLC/MS)
Format: physicochemical
Description: When referring to purity determined by HPLC techniques, said chromatograms are gathered at a wavelength of 235 nm. […] The presence of impurity-4 was checked by reverse HPLC/MS using the method described in the table underneath. [table] [table]

O=C1CCCC(=O)C1C(=O)c1ccc(C(F)(F)F)cc1[N+](=O)[O-] [nitisinone, 2-(2-nitro-4-trifluoromethylbenzoyl)-1,3-cyclohexanedione]
stability (in words) (even in accelerated conditions, period of at least six months): extremely stable
impurity-4 content (in words) (independently from the storage conditions, reverse HPLC/MS): below the limit of quantification
